Results from ChEMBL document CHEMBL4699661, “Synthesis and Biological Characterization of Cyclic Disulfide-Containing Peptide Analogs of the Multifunctional Opioid/Neuropeptide FF Receptor Agonists That Produce Long-Lasting and Nontolerant Antinociception” (J Med Chem, 2020).
The source made the active and inactive calls. The calls are words filed in the database; no cut-off is given here.

Key:
[1] = Drug level in Kunming mouse brain at 1 mg/kg, iv after 5 to 240 mins by LC-MS/MS analysis; type: ADME, organism-based; settings: in vivo, time 5-240 min
[2] = Toxicity in Kunming mouse assessed as activation of reward circuits at 0.09 umol/kg, sc by CPP test; type: organism-based; settings: in vivo, dose 0.09 µmol/kg
[3] = molecular target: T1, Neuropeptide FF receptor 2 (Homo sapiens, UniProt Q9Y5X5); test: Agonist activity at NPFFR2 (unknown origin) expressed in HEK293-A cells assessed as inhibition of forskolin-stimulated cAMP accumulation incubated for 30 mins by competition PKA binding assay; type: functional, cell-based
[4] = Induction of constipation in sc dosed Kunming mouse assessed as inhibition of gastrointestinal motility by charcoal based gastrointestinal motility test; type: organism-based; settings: in vivo
Mus musculus [5] = test: Analgesic activity in Kunming mouse at 30 pmol, icv pre-treated with 10 nmol, icv opioid receptor antagonist beta-funaltrexamine by radiant heat tail flick test; type: functional, organism-based
Mus musculus [6] = test: Analgesic activity in Kunming mouse at 30 pmol, icv by radiant heat tail flick test; type: functional
[7] = Toxicity in Kunming mouse assessed as effect on motor coordination at 0.09 umol/kg, sc by rotarod test; type: organism-based; settings: in vivo, dose 0.09 µmol/kg
Mus musculus [8] = test: Analgesic activity in Kunming mouse at 0.09 umol/kg, sc by radiant heat tail flick test; type: functional; settings: dose 0.09 µmol/kg
Mu-type opioid receptor = Mu-type opioid receptor (Homo sapiens, UniProt P35372); test: Agonist activity at mu opioid receptor (unknown origin) expressed in HEK293-A cells assessed as inhibition of forskolin-stimulated cAMP accumulation incubated for 30 mins by competition PKA binding assay; type: functional, cell-based
[9] = Toxicity in Kunming mouse assessed as effect on motor coordination at 30 pmol, icv by rotarod test; settings: in vivo, icv_or_intrathecal
Mus musculus [10] = test: Analgesic activity in sc dosed Kunming mouse by radiant heat tail flick test; type: functional
[11] = molecular target: T2, Delta-type opioid receptor (Homo sapiens, UniProt P41143); test: Agonist activity at delta opioid receptor (unknown origin) expressed in HEK293-A cells assessed as inhibition of forskolin-stimulated cAMP accumulation incubated for 30 mins by competition PKA binding assay relative to control; type: functional, cell-based; settings: filed as agonist
[12] = Half life in 100% mouse plasma at 0.01 mM by RP-HPLC analysis; type: ADME, cell-free
[13] = molecular target: T3, Neuropeptide FF receptor 1 (Homo sapiens, UniProt Q9GZQ6); test: Agonist activity at NPFFR1 (unknown origin) expressed in HEK293-A cells assessed as inhibition of forskolin-stimulated cAMP accumulation incubated for 30 mins by competition PKA binding assay relative to control; type: functional, cell-based; settings: filed as agonist
[14] = Safety index, ratio of ED50 for induction of constipation in sc dosed Kunming mouse to ED50 for analgesic activity in sc dosed Kunming mouse; type: organism-based; settings: in vivo, read-out: Ratio ED50
Mus musculus [15] = test: Analgesic activity in icv dosed Kunming mouse dosed once daily for 8 consecutive days by radiant heat tail flick test; type: functional, organism-based; settings: time 8.0 day
[16] = molecular target: Kappa-type opioid receptor (Homo sapiens, UniProt P41145); test: Agonist activity at kappa opioid receptor (unknown origin) expressed in HEK293-A cells assessed as inhibition of forskolin-stimulated cAMP accumulation incubated for 30 mins by competition PKA binding assay; type: functional, cell-based; settings: read-out: EC50
[17] = Toxicity in Kunming mouse assessed as increase in total travelled distance at 0.09 umol/kg, sc by open field assay; type: organism-based; settings: in vivo, dose 0.09 µmol/kg
[18] = Half life in 15% mouse brain at 0.01 mM by RP-HPLC analysis; type: ADME, tissue-based
[19] = molecular target: T1, Neuropeptide FF receptor 2; test: Agonist activity at NPFFR2 (unknown origin) expressed in HEK293-A cells assessed as inhibition of forskolin-stimulated cAMP accumulation incubated for 30 mins by competition PKA binding assay relative to control; type: functional, cell-based; settings: filed as agonist
[20] = Toxicity in Kunming mouse assessed as increase in jumping counts after naloxone-injection at 0.09 umol/kg, sc by naloxone-precipitated withdrawal test; type: organism-based; settings: in vivo, dose 0.09 µmol/kg
[21] = Ratio of drug level in brain to plasma in Kunming mouse brain at 1 mg/kg, iv after 5 to 240 mins by LC-MS/MS analysis; type: ADME, organism-based; settings: time 5-240 min, read-out: BPR
[22] = molecular target: T2, Delta-type opioid receptor; test: Agonist activity at delta opioid receptor (unknown origin) expressed in HEK293-A cells assessed as inhibition of forskolin-stimulated cAMP accumulation incubated for 30 mins by competition PKA binding assay; type: functional, cell-based
Mus musculus [23] = test: Analgesic activity in icv dosed Kunming mouse by radiant heat tail flick test; type: functional
Mus musculus [24] = test: Analgesic activity in Kunming mouse assessed as increase in antinociceptive effect at 0.03 pmol, icv pre-treated with 10 nmol, icv NPFF receptor antagonist RF9 by radiant heat tail flick test; type: functional, organism-based
[25] = molecular target: T3, Neuropeptide FF receptor 1; test: Agonist activity at NPFFR1 (unknown origin) expressed in HEK293-A cells assessed as inhibition of forskolin-stimulated cAMP accumulation incubated for 30 mins by competition PKA binding assay; type: functional, cell-based
[26] = Drug level in Kunming mouse plasma at 1 mg/kg, iv after 5 to 240 mins by LC-MS/MS analysis; type: ADME, organism-based; settings: time 5-240 min
Mus musculus [27] = test: Analgesic activity in sc dosed Kunming mouse dosed once daily for 8 consecutive days by radiant heat tail flick test; type: functional, organism-based; settings: time 8.0 day
Mus musculus [28] = test: Analgesic activity in sc dosed Kunming mouse assessed as time duration during which antinociception lasted by radiant heat tail flick test; type: functional
Mus musculus [29] = test: Analgesic activity in icv dosed Kunming mouse assessed as time duration during which supraspinal antinociception lasted by radiant heat tail flick test; type: functional

Q: With `N=C(N)NCCC[C@H](NC(=O)[C@H](CCC(N)=O)NC(=O)[C@@H]1CCCN1C(=O)[C@@H]1CSSC[C@@H](NC(=O)[C@@H](N)Cc2ccc(O)cc2)C(=O)NCC(=O)N[C@@H](Cc2ccccc2)C(=O)N1)C(=O)N[C@@H](Cc1ccccc1)C(N)=O` as the compound, how does the Drug uptake [1] read?
A: 3.87 µg·min/g

Q: What about the Activity [2] of the same compound?
A: Non-Toxic

Q: And the EC50 [3]?
A: 19.2 nM

Q: What about the Activity [4] of the same compound?
A: Dose-dependent effect

Q: And the ED50 [4]?
A: 2.25 µmol/kg

Q: And the Activity (Mus musculus [5])?
A: inactive

Q: What about the MPE (Mus musculus [6]) of the same compound?
A: 90%

Q: What about the Activity [7] of the same compound?
A: Non-Toxic

Q: And the Activity (Mus musculus [8])?
A: 80%

Q: And the EC50 (Mu-type opioid receptor)?
A: 43.1 nM

Q: And the Activity [9]?
A: Non-Toxic

Q: What about the Activity (Mus musculus [10]) of the same compound?
A: Dose-dependent effect

Q: And the ED50 (Mus musculus [10])?
A: 0.003 µmol/kg

Q: What about the Emax [11] of the same compound?
A: 65.1%

Q: What about the half-life at 10 µM [12] of the same compound?
A: 0.893 h

Q: And the Emax [13]?
A: 75.9%

Q: And the selectivity ratio [14]?
A: 750

Q: What about the Activity (Mus musculus [15]) of the same compound?
A: Active

Q: And the EC50 [16]?
A: 866 nM

Q: What about the Activity [17] of the same compound?
A: Non-Toxic

Q: What about the half-life at 10 µM [18] of the same compound?
A: 2.88 h

Q: What about the Emax [19] of the same compound?
A: 53.3%

Q: And the Activity [20]?
A: Non-Toxic

Q: What about the Kp [21] of the same compound?
A: 1.02

Q: What about the EC50 [22] of the same compound?
A: 174 nM

Q: What about the ED50 (Mus musculus [23]) of the same compound?
A: 0.014 pmol

Q: What about the Activity (Mus musculus [24]) of the same compound?
A: Active

Q: What about the EC50 [25] of the same compound?
A: 7.5 nM

Q: What about the AUC [26] of the same compound?
A: 63 ng·h/mL

Q: What about the Activity (Mus musculus [27]) of the same compound?
A: Active

Q: What about the Time (Mus musculus [28]) of the same compound?
A: 4 h

Q: And the Activity (Mus musculus [29])?
A: Dose-dependent effect

Q: What about the Time (Mus musculus [29]) of the same compound?
A: 3 h
